Results: US8349880B2, “Bicyclic compounds for the reduction of beta-amyloid production” (Bristol-Myers Squibb Company, priority 2009, dated 2013)

The compounds below were run on Aβ1-42 production (assay: Cellular assay for inhibition of Aβ1-42 production (H4 APP751 SWE clone 8.20)). Conditions: 19 h, H4 APP751 SWE clone 8.20 cells, 19 h incubation; read-out: Activity Rating (Aβ42 cellular IC50, given as a number).
Format: cell-based
How it was run: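 H4 cells stably expressing APP751 with the Swedish mutation (1.5×10^4 cells/well) incubated with compound for 19 h at 37° C in DMEM with 0.0125% BSA. Secreted Aβ42 measured overnight at 4° C by HTRF-type pairing of 565 (Aβ42 neoepitope) and 26D6 (N-terminal) antibodies. IC50 from curve fit.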

Compared with `COc1cc(Nc2nc3c(s2)CCCC3c2ccccc2)ccc1-n1cnc(C)n1` (centres unmarked) [Example 67, N-(3-methoxy-4-(3-methyl-1H-1,2,4-triazol-1-yl)phenyl)-4-phenyl-4,5,6,7-tetrahydrobenzo[d]thiazol-2-amine], `COc1cc(Nc2nc3c(s2)CCCC3(C)c2ccccc2)ccc1-n1cnc(Cl)c1` (centres unmarked) [Example 73, N-(4-(4-chloro-1H-imidazol-1-yl)-3-methoxyphenyl)-4-methyl-4-phenyl-4,5,6,7-tetrahydrobenzo[d]thiazol-2-amine 2,2,2-trifluoroacetate] is 7.4-fold higher in IC50: 19 nM for the first, 140 nM for the second.

Same assay, conditions: 19 h, H4 APP751 SWE clone 8.20 cells, 19 h incubation; read-out: Activity Rating (based on Aβ42 cellular IC50 values)

First: COc1cc(Nc2nc3n(n2)CCCCC3c2ccc(Cl)nc2)ccc1-n1cnc(Cl)c1 (centres unmarked) [Example 41, N-(4-(4-chloro-1H-imidazol-1-yl)-3-methoxyphenyl)-9-(6-chloropyridin-3-yl)-6,7,8,9-tetrahydro-5H-[1,2,4]thiazolo[1,5-a]azepin-2-amine 2,2,2-trifluoroacetate]
Second: COc1cc(Nc2nc3n(n2)CCCCC3c2cccc(Cl)c2)ccc1-n1cnc(Cl)c1 (centres unmarked) [Example 53, N-(4-(4-chloro-1H-imidazol-1-yl)-3-methoxyphenyl)-9-(3-chlorophenyl)-6,7,8,9-tetrahydro-5H-[1,2,4]triazolo azepin-2-amine]
The IC50 of the first is higher: 10 to 100 nM for the first, less than 10 nM for the second. The second is the more potent here.

First: COc1cc(Nc2nc3n(n2)CCCCC3n2cc(Cl)cn2)ccc1-n1cnc(Cl)c1 (centres unmarked) [Example 42, N-(4-(4-chloro-1H-imidazol-1-yl)-3-methoxyphenyl)-9-(4-chloro-1H-pyrazol-1-yl)-6,7,8,9-tetrahydro-5H-[1,2,4]triazolo[1,5-a]azepin-2-amine 2,2,2-trifluoroacetate]
Second: COc1cc(Nc2nc3n(n2)CCCCC3c2cccc(F)c2)ccc1-n1cnc(Cl)c1 (centres unmarked) [Example 44, N-(4-(4-chloro-1H-imidazol-1-yl)-3-methoxyphenyl)-9-(3-fluorophenyl)-6,7,8,9-tetrahydro-5H-[1,2,4]triazolo[1,5-a]azepin-2-amine]
The IC50 of the first is higher: 10 to 100 nM for the first, less than 10 nM for the second.

`COc1cc(Nc2nc3n(n2)CCCCC3c2ccc(F)cc2)ccc1-n1cnc(C(F)F)c1` (centres unmarked) [Example 43, N-(4-(4-(difluoromethyl)-1H-imidazol-1-yl)-3-methoxyphenyl)-9-(4-fluorophenyl)-6,7,8,9-tetrahydro-5H-[1,2,4]triazolo[1,5-a]azepin-2-amine 2,2,2-trifluoroacetate] and `COc1cc(Nc2nc3n(n2)CCCCC3c2ccc(C#N)cc2)ccc1-n1cnc(Cl)c1` (centres unmarked) [Example 57, 4-(2-(4-(4-chloro-1H-imidazol-1-yl)-3-methoxyphenylamino)-6,7,8,9-tetrahydro-5H-[1,2,4]triazolo[1,5-a]azepin-9-yl)benzonitrile] fall in the same range of IC50: 10 to 100 nM for the first, 10 to 100 nM for the second.

Compared with `COc1cc(Nc2nc3n(n2)CCCCC3c2ccc(F)cc2)ccc1-c1cnnc(C)c1` (centres unmarked) [Example 47, 9-(4-fluorophenyl)-N-(3-methoxy-4-(6-methylpyridazin-4-yl)phenyl)-6,7,8,9-tetrahydro-5H-[1,2,4]triazolo[1,5-a]azepin-2-amine], `COc1cc(Nc2nc3n(n2)CCCCC3c2ccc(F)cc2)ccc1-c1cc(C)no1` (centres unmarked) [Example 61, 9-(4-fluorophenyl)-N-(3-methoxy-4-(3-methylisoxazol-5-yl)phenyl)-6,7,8,9-tetrahydro-5H-[1,2,4]triazolo[1,5-a]azepin-2-amine] is higher in IC50: 10 to 100 nM for the first, 100 to 1000 nM for the second.

`Fc1ccc(C2CCCCn3nc(Nc4cc(F)c(-n5cnc(Cl)c5)c(F)c4)nc32)cc1` (centres unmarked) [Example 48, N-(4-(4-chloro-1H-imidazol-1-yl)-3,5-difluorophenyl)-9-(4-fluorophenyl)-6,7,8,9-tetrahydro-5H-[1,2,4]triazolo[1,5-a]azepin-2-amine] and `COc1cc(Nc2nc3n(n2)CCCCC3c2ccc(F)cc2)cc(F)c1-n1cnc(Cl)c1` (centres unmarked) [Example 49, N-(4-(4-chloro-1H-imidazol-1-yl)-3-fluoro-5-methoxyphenyl)-9-(4-fluorophenyl)-6,7,8,9-tetrahydro-5H-[1,2,4]triazolo[1,5-a]azepin-2-amine] cannot be ordered by IC50: less than 10 nM for the first, less than 10 nM for the second.

`COc1cc(Nc2nc3n(n2)CCCCC3c2cc(F)c(F)c(F)c2)ccc1-n1cnc(Cl)c1` (centres unmarked) [Example 50, N-(4-(4-chloro-1H-imidazol-1-yl)-3-methoxyphenyl)-9-(3,4,5-trifluorophenyl)-6,7,8,9-tetrahydro-5H-[1,2,4]triazolo[1,5-a]azepin-2-amine] and `COc1cc(Nc2nc3n(n2)CCCCC3c2ccccc2F)ccc1-n1cnc(Cl)c1` (centres unmarked) [Example 56, N-(4-(4-chloro-1H-imidazol-1-yl)-3-methoxyphenyl)-9-(2-fluorophenyl)-6,7,8,9-tetrahydro-5H-[1,2,4]triazolo[1,5-a]azepin-2-amine] cannot be ordered by IC50: less than 10 nM for the first, less than 10 nM for the second.

`COc1cc(Nc2nc3n(n2)CCCCC3c2ccc(F)cc2)ccc1-c1nc(C)no1` (centres unmarked) [Example 60, 9-(4-fluorophenyl)-N-(3-methoxy-4-(3-methyl-1,2,4-oxadiazol-5-yl)phenyl)-6,7,8,9-tetrahydro-5H-[1,2,4]triazolo[1,5-a]azepin-2-amine] and `COc1cc(Nc2nc3c(s2)CC(N)CC3c2ccc(F)cc2)ccc1-n1cnc(Cl)c1` (centres unmarked) [Example 77, N2-(4-(4-chloro-1H-imidazol-1-yl)-3-methoxyphenyl)-4-(4-fluorophenyl)-4,5,6,7-tetrahydrobenzo[d]thiazole-2,6-diamine] fall in the same range of IC50: 100 to 1000 nM for the first, 100 to 1000 nM for the second.

`COc1cc(Nc2nc3c(s2)CCCC3c2ccccc2)ccc1-n1cnc(Cl)c1` (centres unmarked) [Example 68, N-(4-(4-chloro-1H-imidazol-1-yl)-3-methoxyphenyl)-4-phenyl-4,5,6,7-tetrahydrobenzo[d]thiazol-2-amine] and `COc1cc(Nc2nc3c(s2)CCCC3c2ccccc2)ccc1-n1cnc(C)c1` (centres unmarked) [Example 71, N-(3-methoxy-4-(4-methyl-1H-imidazol-1-yl)phenyl)-4-phenyl-4,5,6,7-tetrahydrobenzo[d]thiazol-2-amine 2,2,2-trifluoroacetate] fall in the same range of IC50: 10 to 100 nM for the first, 10 to 100 nM for the second.

First: COc1cc(Nc2nc3c(s2)CCCC3c2ccccc2)ccc1-c1ccnc(C)c1 (centres unmarked) [Example 72, N-(3-methoxy-4-(2-methylpyridin-4-yl)phenyl)-4-phenyl-4,5,6,7-tetrahydrobenzo[d]thiazol-2-amine 2,2,2-trifluoroacetate]
Second: COc1cc(Nc2nc3c(s2)CC(O)CC3c2ccc(F)cc2)ccc1-n1cnc(Cl)c1 (centres unmarked) [Example 76, 2-(4-(4-chloro-1H-imidazol-1-yl)-3-methoxyphenylamino)-4-(4-fluorophenyl)-4,5,6,7-tetrahydrobenzo[d]thiazol-6-ol]
The IC50 of the first is higher: 10 to 100 nM for the first, less than 10 nM for the second.

`COc1cc(Nc2nc3c(s2)CC2(CC3c3ccc(F)cc3)OCCO2)ccc1-n1cnc(Cl)c1` (centres unmarked) [Example 74, N-(4-(4-chloro-1H-imidazol-1-yl)-3-methoxyphenyl)-4-(4-fluorophenyl)-5,7-dihydro-4H-spiro[benzo[d]thiazole-6,2′-[1,3]dioxolan]-2-amine] and `COc1cc(Nc2nc3c(s2)CC(=O)CC3c2ccc(F)cc2)ccc1-n1cnc(Cl)c1` (centres unmarked) [Example 75, 2-(4-(4-chloro-1H-imidazol-1-yl)-3-methoxyphenylamino)-4-(4-fluorophenyl)-4,5-dihydrobenzo[d]thiazol-6(7H)-one] fall in the same range of IC50: 10 to 100 nM for the first, 10 to 100 nM for the second.

Work on `COc1cc(Nc2nc3c(s2)CC(N(C)C)CC3c2ccc(F)cc2)ccc1-n1cnc(Cl)c1` (centres unmarked) [Example 78, N2-(4-(4-chloro-1H-imidazol-1-yl)-3-methoxyphenyl)-4-(4-fluorophenyl)-N6,N6-dimethyl-4,5,6,7-tetrahydrobenzo[d]thiazole-2,6-diamine] yielded an IC50 of 100 to 1000 nM.
